Holding throughout (experiment): Post-emergence efficacy, glasshouse spray test
Holding throughout (assay type): in vivo

Assay [1] concerns Amaranthus palmeri (AMAPA). Particulars: Application Rate 500 g/Ha, evaluated after 13 days; for pest or weed control at 500 g/ha: Amaranthus palmeri, post-emergence, 312 h, read-out: Control of weed species after post-emergence application, AMAPA (100=total damage to plant; 0=no damage to plant). Here is the method:
(§1) Seeds of a variety of test species were sown in standard soil in pots. After cultivation for 14 days (post-emergence) under controlled conditions in a glasshouse (at 24/16° C. day/night; 14 hours light; 65% humidity), the plants were sprayed with an aqueous spray solution derived from the dissolution of the technical active ingredient formula (I) in a small amount of acetone and a special solvent and emulsifier mixture referred to as IF50 (11.12% Emulsogen EL360 TM+44.44% N-methyl pyrrolidone+44.44% Dowanol DPM glycolether), to create a 50 g/l solution which was then diluted to required concentration using 0.25% or 1% Empicol ESC70 (Sodium lauryl ether sulphate)+1% ammonium sulphate as diluent. The test plants were then grown in a glasshouse under controlled conditions (at 24/16° C., day/night; 14 hours light; 65% humidity) and watered twice daily. After 13 days the test was evaluated (100=total damage to plant; 0=no damage to plant).
(§2) Ipomoea hederacea (IPOHE), Euphorbia heterophylla (EPHHL), Chenopodium album (CHEAL), Amaranthus palmeri (AMAPA), Lolium perenne (LOLPE), Digitaria sanguinalis (DIGSA), Eleusine indica (ELEIN), Echinochloa crus-galli (ECHCG), Setaia fabei (SETFA)

For assay [2], the system named is Chenopodium album (CHEAL). Particulars: Application Rate 500 g/Ha, evaluated after 13 days; for pest or weed control at 500 g/ha: Chenopodium album, post-emergence, 312 h, read-out: Control of weed species after post-emergence application, CHEAL (100=total damage to plant; 0=no damage to plant). Here is the method:
as §1, §2

Assay [3] deals with Digitaria sanguinalis (DIGSA). Particulars: Application Rate 500 g/Ha, evaluated after 13 days; for pest or weed control at 500 g/ha: Digitaria sanguinalis, post-emergence, 312 h, read-out: Control of weed species after post-emergence application, DIGSA (100=total damage to plant; 0=no damage to plant). The protocol:
as §1, §2

Assay [4] deals with Echinochloa crus-galli (ECHCG). Particulars: Application Rate 500 g/Ha, evaluated after 13 days; for pest or weed control at 500 g/ha: Echinochloa crus-galli, post-emergence, 312 h, read-out: Control of weed species after post-emergence application, ECHCG (100=total damage to plant; 0=no damage to plant). Here is the method:
as §1, §2

A further assay deals with Eleusine indica (ELEIN). Particulars: Application Rate 500 g/Ha, evaluated after 13 days; for pest or weed control at 500 g/ha: Eleusine indica, post-emergence, 312 h, read-out: Control of weed species after post-emergence application, ELEIN (100=total damage to plant; 0=no damage to plant). Here is the method: as §1, §2
In assay [5] the test system is Euphorbia heterophylla (EPHHL). The following applies: Application Rate 500 g/Ha, evaluated after 13 days; for pest or weed control at 500 g/ha: Euphorbia heterophylla, post-emergence, 312 h, read-out: Control of weed species after post-emergence application, EPHHL (100=total damage to plant; 0=no damage to plant). Here is the method:
as §1, §2

For assay [6], the system named is Ipomoea hederacea (IPOHE). Particulars: Application Rate 500 g/Ha, evaluated after 13 days; for pest or weed control at 500 g/ha: Ipomoea hederacea, post-emergence, 312 h, read-out: Control of weed species after post-emergence application, IPOHE (100=total damage to plant; 0=no damage to plant). Here is the method:
as §1, §2

The test system of the next assay is Lolium perenne (LOLPE). Particulars: Application Rate 500 g/Ha, evaluated after 13 days; for pest or weed control at 500 g/ha: Lolium perenne, post-emergence, 312 h, read-out: Control of weed species after post-emergence application, LOLPE (100=total damage to plant; 0=no damage to plant). The protocol:
as §1, §2

Another assay has as its system Setaia fabei (SETFA). Particulars: Application Rate 500 g/Ha, evaluated after 13 days; for pest or weed control at 500 g/ha: Setaria faberi, post-emergence, 312 h, read-out: Control of weed species after post-emergence application, SETFA (100=total damage to plant; 0=no damage to plant). Here is the method: as §1, §2

With `COP(=O)(C[n+]1ccc(-c2ncco2)cn1)OC` [Compound A94], the “Control of weed species after post-emergence application, AMAPA (100=total damage to plant; 0=no damage to plant)” value in assay [1] is 90. Further, the “Control of weed species after post-emergence application, CHEAL (100=total damage to plant; 0=no damage to plant)” value in assay [2] came to 90. Also, in [3], the “Control of weed species after post-emergence application, DIGSA (100=total damage to plant; 0=no damage to plant)” value is given as 100. For the same compound, the “Control of weed species after post-emergence application, ECHCG (100=total damage to plant; 0=no damage to plant)” value in assay [4] was found to be 90. For the same compound, in the assay with Eleusine indica (ELEIN), the “Control of weed species after post-emergence application, ELEIN (100=total damage to plant; 0=no damage to plant)” value amounted to 100. Besides, the “Control of weed species after post-emergence application, EPHHL (100=total damage to plant; 0=no damage to plant)” value in [5] turned out to be 100. In assay [6], the “Control of weed species after post-emergence application, IPOHE (100=total damage to plant; 0=no damage to plant)” value is 90. The “Control of weed species after post-emergence application, LOLPE (100=total damage to plant; 0=no damage to plant)” value in the assay with Lolium perenne (LOLPE) was found to be 40. Further, the “Control of weed species after post-emergence application, SETFA (100=total damage to plant; 0=no damage to plant)” value in the assay with Setaia fabei (SETFA) was 90.
For `COc1cc(-c2cc[n+](CCC(=O)O)nc2)sn1` [Compound A33], the pest or weed control at 500 g/ha amounted to 100% in assay [1]; 70% in assay [2]; 70% in assay [3]; 20% in [4]; 50% with Eleusine indica (ELEIN); 80% in assay [5]. Further, the pest or weed control at 500 g/ha was 10% in assay [6], 30% in the assay with Lolium perenne (LOLPE) and 30% in the assay with Setaia fabei (SETFA).
`O=S(=O)([O-])CC[n+]1ccc(-c2ncco2)cn1` [Compound A19]: the pest or weed control at 500 g/ha amounted to 40% in assay [1]; 100% in assay [2]; 70% in assay [3]; 80% in assay [4]; 100% in the assay with Eleusine indica (ELEIN); 100% in [5]. Also, the pest or weed control at 500 g/ha in assay [6] is 70%; in the assay with Lolium perenne (LOLPE) it was 90%; in the assay with Setaia fabei (SETFA), 60%.
For the compound `O=S(=O)([O-])CC[n+]1ccc(-c2ccsn2)cn1` [Compound A105], the pest or weed control at 500 g/ha in [1] came to 90%; in assay [2] it was 90%; in assay [3], 100%; in assay [4], 80%; in the assay with Eleusine indica (ELEIN), 90%; in [5], 100%. The pest or weed control at 500 g/ha came out at 70% in assay [6], 70% in the assay on Lolium perenne (LOLPE) and 90% in the assay on Setaia fabei (SETFA).
`O=S(=O)([O-])N1CCCC1C[n+]1ccc(-c2ncco2)cn1` (stereo not shown) [Compound A101]: the pest or weed control at 500 g/ha in assay [1] is 70%; in assay [2], 60%; in assay [3], 70%; in [4], 40%; in the assay on Eleusine indica (ELEIN), 30%; in assay [5], 70%. Moreover, the pest or weed control at 500 g/ha was found to be 40% in assay [6], 20% in the assay on Lolium perenne (LOLPE) and 60% in the assay with Setaia fabei (SETFA).
Regarding `OCCC[n+]1ccc(-c2ncco2)cn1` [Compound A70], the pest or weed control at 500 g/ha is 40% in [1]; 40% in assay [2]; 80% in assay [3]; 40% in assay [4]; 40% in the assay on Eleusine indica (ELEIN); 30% in [6]. Further, the results for the pest or weed control at 500 g/ha with Lolium perenne (LOLPE) and in the assay on Setaia fabei (SETFA) were 20% and 40%, respectively.
Turning to `CC(C)c1csc(-c2cc[n+](CCC(=O)O)nc2)n1.O=C([O-])C(F)(F)F` [Compound A24], the “Control of weed species after post-emergence application, AMAPA (100=total damage to plant; 0=no damage to plant)” value in assay [1] is on record as 0. For the same compound, the “Control of weed species after post-emergence application, CHEAL (100=total damage to plant; 0=no damage to plant)” value in [2] amounted to 0. In [3], the “Control of weed species after post-emergence application, DIGSA (100=total damage to plant; 0=no damage to plant)” value turned out to be 10. The “Control of weed species after post-emergence application, ECHCG (100=total damage to plant; 0=no damage to plant)” value in assay [4] is reported as 30. Further, the “Control of weed species after post-emergence application, ELEIN (100=total damage to plant; 0=no damage to plant)” value with Eleusine indica (ELEIN) came out at 20. The “Control of weed species after post-emergence application, IPOHE (100=total damage to plant; 0=no damage to plant)” value in assay [6] is 10. The “Control of weed species after post-emergence application, LOLPE (100=total damage to plant; 0=no damage to plant)” value in the assay with Lolium perenne (LOLPE) was found to be 10. The “Control of weed species after post-emergence application, SETFA (100=total damage to plant; 0=no damage to plant)” value in the assay with Setaia fabei (SETFA) was 20.
In the case of `Cn1nnc(-c2cc[n+](CCC(=O)O)nc2)n1` [Compound A28], the pest or weed control at 500 g/ha stood at 100% in assay [1]; 90% in [2]; 70% in [3]; 100% in [4]; 100% with Eleusine indica (ELEIN); 30% in assay [6]. In addition, the figures for the pest or weed control at 500 g/ha in the assay with Lolium perenne (LOLPE) and in the assay with Setaia fabei (SETFA) were 70% and 100%, respectively.
In the case of `COC(=O)[C@@H](N)CC[n+]1ccc(-c2ncco2)cn1` [Compound A109], the pest or weed control at 500 g/ha in assay [1] came to 90%; in assay [2], 90%; in [5], 60%; in [6], 0%; in the assay on Lolium perenne (LOLPE), 10%; in the assay on Setaia fabei (SETFA), 90%.
`COc1csc(-c2cc[n+](CCS(=O)(=O)[O-])nc2)n1` [Compound A26]: the pest or weed control at 500 g/ha in assay [1] is 20%; in assay [2] it was 40%; in assay [3] it was 30%; in assay [4] it was 20%; with Eleusine indica (ELEIN) it was 40%; in assay [6], 40%. The values for the pest or weed control at 500 g/ha in the assay on Lolium perenne (LOLPE) and in the assay on Setaia fabei (SETFA) were 30% and 40%, respectively.
As to `Cc1nsc(-c2cc[n+](CCS(=O)(=O)[O-])nc2)c1C` [Compound A54, 2-[4-(3,4-dimethylisothiazol-5-yl)pyridazin-1-ium-1-yl]ethanesulfonate], the pest or weed control at 500 g/ha was 80% in assay [1]; 50% in [2]; 90% in [3]; 70% in assay [4]; 80% in the assay on Eleusine indica (ELEIN); 10% in [6]. In addition, the pest or weed control at 500 g/ha with Lolium perenne (LOLPE) is 60%; with Setaia fabei (SETFA) it was 70%.
As for `Cn1cc(-c2cc[n+](CCS(=O)(=O)[O-])nc2)nn1` [Compound A81], the pest or weed control at 500 g/ha was found to be 50% in [1]; 40% in [2]; 70% in assay [3]; 30% in assay [4]; 10% in the assay with Eleusine indica (ELEIN); 10% in [6]. For the same compound, the pest or weed control at 500 g/ha was 10% in the assay on Lolium perenne (LOLPE) and 50% in the assay on Setaia fabei (SETFA).
`Cc1coc(-c2cc[n+](CCC(=O)O)nc2)n1` [Compound A55]: the pest or weed control at 500 g/ha in [1] was found to be 100%; in assay [2] it was 80%; in assay [3] it was 100%; in assay [4], 100%; in the assay with Eleusine indica (ELEIN), 100%; in assay [6], 20%. Further, the pest or weed control at 500 g/ha with Lolium perenne (LOLPE) amounted to 70%; in the assay on Setaia fabei (SETFA), 100%.
Consider `Cn1cc(-c2cc[n+](CCC(=O)O)nc2)nn1` [Compound A80], for which the pest or weed control at 500 g/ha was 40% in assay [1]; 10% in assay [2]; 60% in [3]; 0% in assay [4]; 10% with Eleusine indica (ELEIN); 10% in assay [6]. Further, the pest or weed control at 500 g/ha in the assay on Lolium perenne (LOLPE) is 0%; in the assay with Setaia fabei (SETFA), 40%.
